Structures can show the parent of a compound that is named as a salt.
Each molecule was assayed against Sphingosine 1-phosphate receptor 1 (Homo sapiens, UniProt P21453) (assay: S1P1 agonism potentiation – cell-based, potentiator mode, 60K MLSMR set, dose response (AID 466)). Conditions: not given.
Sequence of Sphingosine 1-phosphate receptor 1 (P21453 whole entry): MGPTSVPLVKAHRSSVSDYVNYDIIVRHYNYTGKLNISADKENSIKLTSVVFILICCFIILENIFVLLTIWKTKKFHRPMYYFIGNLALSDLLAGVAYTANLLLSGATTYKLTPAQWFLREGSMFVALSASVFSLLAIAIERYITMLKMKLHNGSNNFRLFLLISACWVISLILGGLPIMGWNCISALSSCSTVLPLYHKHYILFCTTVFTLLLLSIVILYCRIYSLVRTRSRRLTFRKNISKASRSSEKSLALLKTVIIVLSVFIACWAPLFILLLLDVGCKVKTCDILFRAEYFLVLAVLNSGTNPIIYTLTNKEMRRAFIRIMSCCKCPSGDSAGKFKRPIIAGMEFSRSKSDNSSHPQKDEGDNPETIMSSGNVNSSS
In the case of `Cc1ccc(-n2c(C)cc(C(=O)COC(=O)c3c(C)noc3C)c2C)cc1` [3,5-dimethyl-4-isoxazolecarboxylic acid [2-[2,5-dimethyl-1-(4-methylphenyl)-3-pyrrolyl]-2-oxoethyl] ester], the EC50 is reported as 7.98 µM. `Cc1ccc2oc(-c3ccc(NC(=O)c4cccnc4)cc3)nc2c1` [MLS000068975] was tested, and the EC50 was 2.81 µM. For `CC(C)Cc1cc(C(=O)Nc2sc3c(c2C#N)CCCC3)no1` [MLS000116410], the EC50 was 9.59 µM. `Cc1cccc(-c2nc(CSCC(=O)N3CCN(Cc4ccc5c(c4)OCO5)CC3)c(C)o2)c1` [1-(1,3-benzodioxol-5-ylmethyl)-4-[({[5-methyl-2-(3-methylphenyl)-1,3-oxazol-4-yl]methyl}thio)acetyl]piperazine] showed an EC50 of 5.42 µM. For `COc1ccc(C(c2c(O)ccc3ccccc23)N2CCOCC2)c(OC)c1` (centres undefined) [1-[(2,4-dimethoxyphenyl)-(4-morpholinyl)methyl]-2-naphthalenol], the EC50 was 3.83 µM. Work on `Clc1ccc(NCn2cncn2)nc1` yielded an EC50 of over 95 µM. `O=c1c(-c2ccc3c(c2)OCCO3)c(C(F)(F)F)oc2cc(O)cc(O)c12` [3-(2,3-dihydro-1,4-benzodioxin-6-yl)-5,7-bis(oxidanyl)-2-(trifluoromethyl)chromen-4-one] gave an EC50 of 3.83 µM. `Cc1nc2ccccc2c2oc(C(=O)NCC3COc4ccccc4O3)cc12` (centres undefined) [MLS000118430] gave an EC50 of 9.7 µM. Work on `COc1ccc2c(c1)CCc1c(C(=O)Nc3ccc(OC)c(OC)c3)noc1-2` [MLS000087452] yielded an EC50 of 2.83 µM. In the case of `O=C(CSc1nnc(-c2cc3ccccc3cc2O)n1Cc1ccco1)c1ccc(F)cc1` [(3Z)-3-[3-[2-(4-fluorophenyl)-2-oxidanylidene-ethyl]sulfanyl-4-(furan-2-ylmethyl)-1H-1,2,4-triazol-5-ylidene]naphthalen-2-one], the EC50 is reported as 23.1 µM. Work on `Cc1cc(C(=O)CSc2nnnn2C)c(C)n1-c1cccc(F)c1` [1-[1-(3-fluorophenyl)-2,5-dimethyl-3-pyrrolyl]-2-[(1-methyl-5-tetrazolyl)thio]ethanone] yielded an EC50 of 1.88 µM. For `NC(=Nc1nc2c(c(=O)[nH]1)CCCC2)Nc1ccccc1` [MLS000078734], the EC50 was 5.87 µM. For `Clc1ccc(OCc2nc(-c3ccncc3)no2)c(Br)c1` [5-[(2-bromanyl-4-chloranyl-phenoxy)methyl]-3-pyridin-4-yl-1,2,4-oxadiazole], the EC50 was 3.45 µM. `COc1ccc(-c2noc(-c3cc(C)cc(C)c3)n2)cc1OC` [3-(3,4-dimethoxyphenyl)-5-(3,5-dimethylphenyl)-1,2,4-oxadiazole] was tested, and the EC50 was 1.01 µM. `Cn1c(SCC(=O)Nc2ccc(N3CCOCC3)c(Cl)c2)nnc1-c1ccccc1` [MLS000089171] showed an EC50 of 2.06 µM. In the case of `CN1/C(=C/C(=O)c2nc(S(C)(=O)=O)ncc2Cl)C(C)(C)c2ccccc21`, the EC50 is reported as 9.04 µM. `COc1ccc2[nH]c(=O)c3c(c2c1)OC(C)(C)C=C3` gave an EC50 of 6.25 µM. `O=C(Nc1ccc(O)cc1)c1cc2n(n1)C(C(F)(F)F)CC(c1ccco1)N2` (centres undefined) [5-(2-furanyl)-N-(4-hydroxyphenyl)-7-(trifluoromethyl)-1,5,6,7-tetrahydropyrazolo[1,5-a]pyrimidine-2-carboxamide] gave an EC50 of 3.29 µM. With `Cc1occc1C(=O)N1CCN(c2ccc(Cl)c(Cl)c2)CC1` [1-(3,4-dichlorophenyl)-4-(2-methyl-3-furoyl)piperazine] the EC50 was 5.18 µM. `O=C(CCN1CCc2ccccc2CC1)c1ccc2c(c1)OCCO2` [1-(2,3-dihydro-1,4-benzodioxin-6-yl)-3-(1,2,4,5-tetrahydro-3-benzazepin-3-yl)-1-propanone;hydrochloride] gave an EC50 of 12.4 µM. `O=C(C1CCC1)N1CCc2cc(S(=O)(=O)Nc3ccc4c(c3)OCCO4)ccc21` [1-(cyclobutanecarbonyl)-N-(2,3-dihydro-1,4-benzodioxin-6-yl)-2,3-dihydroindole-5-sulfonamide] gave an EC50 of over 30 µM. For `CC(=N)C(C#N)C(=O)CSc1nc2cc(Cl)ccc2s1` (centres undefined) [(E)-3-amino-2-[2-[(5-chloro-1,3-benzothiazol-2-yl)sulfanyl]acetyl]but-2-enenitrile], the EC50 was 11.1 µM. `CC(C)COC(=O)NCCOC(=O)Nc1cccc(Cl)c1` [2-(2-methylpropoxycarbonylamino)ethyl N-(3-chlorophenyl)carbamate] was tested, and the EC50 was 8.05 µM. For `Cc1cc(C(=O)CSc2nnc(-c3cccs3)o2)c(C)n1-c1ccccc1` [1-(2,5-dimethyl-1-phenyl-3-pyrrolyl)-2-[(5-thiophen-2-yl-1,3,4-oxadiazol-2-yl)thio]ethanone], the EC50 was 4.19 µM. Molecule `O=S(=O)(c1cccs1)N1CCN(CC(O)COc2cc(Cl)ccc2Cl)CC1` (centres undefined) [1-(2,5-dichlorophenoxy)-3-(4-thiophen-2-ylsulfonyl-1-piperazinyl)-2-propanol] has an EC50 of 4.33 µM. `COc1ccc(-n2nnnc2S(=O)(=O)CC(=O)N2CCCCC2)cc1` [2-[1-(4-methoxyphenyl)tetrazol-5-yl]sulfonyl-1-piperidin-1-ylethanone] gave an EC50 of 9.83 µM. For `CC(Oc1ccccc1Br)C(=O)N1CCc2ccccc21` (centres undefined) [1-[2-(2-bromophenoxy)propanoyl]indoline], the EC50 was 7.23 µM. Work on `Cc1cc(-c2nnc(-c3ccccc3)c(-c3ccccc3)n2)c(C)o1` [3-(2,5-dimethyl-3-furanyl)-5,6-diphenyl-1,2,4-triazine] yielded an EC50 of 6.75 µM. With `Cc1ccc(-n2c(C)cc(C(=O)CSc3nnnn3C)c2C)cc1` [1-[2,5-dimethyl-1-(4-methylphenyl)-3-pyrrolyl]-2-[(1-methyl-5-tetrazolyl)thio]ethanone] the EC50 was 6.1 µM. Work on `CCOc1ccc(C(C)=O)cc1-n1c(O)c2c(c1O)C1C=CC2O1` [MLS000087730] yielded an EC50 of 10.8 µM. Molecule `COc1ccc(CCNc2c(C)c(C)nc3ncnn23)cc1` [(5,6-Dimethyl-[1,2,4]triazolo[1,5-a]pyrimidin-7-yl)-[2-(4-methoxy-phenyl)-ethyl]-amine] has an EC50 of 3.72 µM. `Nc1ccc(N2CCOCC2)c(Cl)c1` [(3-chloro-4-morpholino-phenyl)amine] gave an EC50 of 0.981 µM. In the case of `CCSc1nnc(NC(=O)C(Cc2ccccc2)n2cccc2)s1` (centres undefined) [MLS000119034], the EC50 is reported as over 30 µM. With `O=C(Nc1ccc(Cl)cc1)N1CCC(c2nc(-c3ccc(F)cc3)no2)CC1` [4-[3-(4-Fluoro-phenyl)-[1,2,4]oxadiazol-5-yl]-piperidine-1-carboxylic acid (4-chloro-phenyl)-amide] the EC50 was 5.9 µM. `O=C(Nc1ccc(N2CCOCC2)c(Cl)c1)c1cccc(F)c1` [MLS000066209] was tested, and the EC50 was 0.935 µM. For `O=C(CSc1nnc(-c2c[nH]c3ccccc23)o1)N1c2ccccc2CCc2ccccc21`, the EC50 was 7.48 µM. Molecule `O=C(c1ccc(Cl)s1)N1CCN(c2nc3ccccc3s2)CC1` [MLS000100900] has an EC50 of over 30 µM. For `CCCc1ccc(OCc2nc(-c3ccc(NC(=O)c4ccco4)cc3)no2)cc1` [MLS000097352], the EC50 was 4.08 µM. For `COC(=O)c1c(C)n(-c2ccc(OC)cc2)c2ccc(O)cc12` [5-hydroxy-1-(4-methoxyphenyl)-2-methyl-3-indolecarboxylic acid methyl ester], the EC50 was 6.86 µM.

Same assay, conditions: inactive by the depositor's call
Work on `Cc1ccc(-c2nc(COC(=O)c3c(C)noc3C)cs2)cc1` [3,5-dimethyl-4-isoxazolecarboxylic acid [2-(4-methylphenyl)-4-thiazolyl]methyl ester] yielded an EC50 of 27.9 µM. Molecule `c1ccc(CSc2nnc(-c3cccs3)o2)cc1` [2-(benzylthio)-5-(2-thienyl)-1,3,4-oxadiazole] has an EC50 of 20.4 µM. With `C=CCn1c(C)cc(C(=O)CSc2nc3ccccc3o2)c1C` [1-(1-allyl-2,5-dimethyl-pyrrol-3-yl)-2-(1,3-benzoxazol-2-ylthio)ethanone] the EC50 was 10.3 µM. Work on `Cn1cccc1C(=O)OCc1cc(Cl)cc2c1OCOC2` [(6-chloranyl-4H-1,3-benzodioxin-8-yl)methyl 1-methylpyrrole-2-carboxylate] yielded an EC50 of 17.2 µM. Work on `CC1CC(C)(C)Nc2ccc(OC(=O)c3ccco3)cc21` (centres undefined) [(2,2,4-trimethyl-3,4-dihydro-1H-quinolin-6-yl) furan-2-carboxylate] yielded an EC50 of 14 µM. Molecule `Cc1ccc(C(=O)Nc2nc(COc3ccccc3)cs2)s1` [5-methyl-N-[4-(phenoxymethyl)-1,3-thiazol-2-yl]thiophene-2-carboxamide] has an EC50 of 11.2 µM. For `Cc1ccc(OCCn2cc(C(=N)NO)c3ccccc32)cc1C` [1-[2-(3,4-dimethylphenoxy)ethyl]-N'-hydroxy-1H-indole-3-carboximidamide], the EC50 was 11.2 µM. `COc1ccc(-n2c(C)cc(C(=O)COC(=O)Cn3cnc4ccccc43)c2C)cc1` [2-(1-benzimidazolyl)acetic acid [2-[1-(4-methoxyphenyl)-2,5-dimethyl-3-pyrrolyl]-2-oxoethyl] ester] gave an EC50 of 11.6 µM. For `Cc1ccc(Cl)cc1N1CCN(C(=O)C2CCN(c3nnc(-n4cccc4)s3)CC2)CC1` [MLS000119702], the EC50 was 43.3 µM. `CCCCOc1ccc(S(=O)(=O)Nc2cc(OC)ccc2OC)cc1` [4-butoxy-N-(2,5-dimethoxyphenyl)benzenesulfonamide] showed an EC50 of 12.1 µM. Work on `O=S1(=O)C=C(Sc2nnc(-c3ccccc3)o2)c2ccccc21` yielded an EC50 of 23.5 µM. `COc1ccccc1-c1cc(C(=O)Nc2cc(C)nn2-c2ccccc2)no1` [5-(2-methoxyphenyl)-N-(3-methyl-1-phenyl-1H-pyrazol-5-yl)isoxazole-3-carboxamide] gave an EC50 of 57.7 µM. Molecule `Cc1ccc(S(=O)(=O)Nc2cccc3ncccc23)s1` [5-methyl-N-quinolin-5-ylthiophene-2-sulfonamide] has an EC50 of 27.6 µM. `Cc1ccc(C)c(-n2nnnc2Sc2nnnn2-c2ccccc2)c1` [1-(2,5-dimethylphenyl)-5-(1-phenyltetrazol-5-yl)sulfanyltetrazole] gave an EC50 of 14.8 µM. Molecule `Cc1ccc2[nH]c3c(NCc4ccco4)ncnc3c2c1` [MLS000040855] has an EC50 of 10.8 µM. `CC(C)Cc1cc(C(=O)Nc2cc(Br)ccc2O)no1` [MLS000116399] was tested, and the EC50 was 16.5 µM. With `Cc1nc2sc(-c3ccccc3)cc2c(=O)n1-n1cccc1` [2-methyl-6-phenyl-3-(1-pyrrolyl)-4-thieno[2,3-d]pyrimidinone] the EC50 was 17.6 µM. `Cc1ccc(N2C(=O)c3cccc4c(N5CCN(C)CC5)ccc(c34)C2=O)c2cccnc12` [6-(4-methyl-1-piperazinyl)-2-(8-methyl-5-quinolinyl)-1H-benzo[de]isoquinoline-1,3(2H)-dione] showed an EC50 of 33.2 µM. Molecule `COc1cccc(NC(=O)Nc2nnc(N3CCCCC3C)s2)c1` (centres undefined) [1-(3-methoxyphenyl)-3-[5-(2-methyl-1-piperidinyl)-1,3,4-thiadiazol-2-yl]urea] has an EC50 of 11.5 µM. `CCc1ccc(-c2nc(CSCC(=O)N3CCN(c4ccccn4)CC3)c(C)o2)cc1` [1-[({[2-(4-ethylphenyl)-5-methyl-1,3-oxazol-4-yl]methyl}thio)acetyl]-4-pyridin-2-ylpiperazine] gave an EC50 of 11.5 µM.

Reference: BindingDB's records for doi:10.7270/Q2ZC817P (The Scripps Research Institute Molecular Screening Center, 2007)
